# Test results as given in patent US7211424B1, “Mammalian Subtilisin/kexin isozyme SKI-1: a proprotein convertase with a unique cleavage specificity” (Institut de Recherches Cliniques de Montreal, priority 1999, dated 2007).
# *1 amine or outer side, *2 acyl side, *3 side chain or, on linkers, in order; H or OH if unused. Where a SMILES comes first, the peptide text is derived from it. [ ]: non-standard residue; d: D form. The star is where a group is joined. Sta = CC(C)C[C@H](N)[C@@H](O)CC(=O)O; Isovaleryl = CC(C)CC(=O)*; CO = O=C([*:1])[*:2]
# T1: BTMD-SKI-1 (Homo sapiens, UniProt Q14703)
# T1 sequence (Q14703 187-997 limits assumed): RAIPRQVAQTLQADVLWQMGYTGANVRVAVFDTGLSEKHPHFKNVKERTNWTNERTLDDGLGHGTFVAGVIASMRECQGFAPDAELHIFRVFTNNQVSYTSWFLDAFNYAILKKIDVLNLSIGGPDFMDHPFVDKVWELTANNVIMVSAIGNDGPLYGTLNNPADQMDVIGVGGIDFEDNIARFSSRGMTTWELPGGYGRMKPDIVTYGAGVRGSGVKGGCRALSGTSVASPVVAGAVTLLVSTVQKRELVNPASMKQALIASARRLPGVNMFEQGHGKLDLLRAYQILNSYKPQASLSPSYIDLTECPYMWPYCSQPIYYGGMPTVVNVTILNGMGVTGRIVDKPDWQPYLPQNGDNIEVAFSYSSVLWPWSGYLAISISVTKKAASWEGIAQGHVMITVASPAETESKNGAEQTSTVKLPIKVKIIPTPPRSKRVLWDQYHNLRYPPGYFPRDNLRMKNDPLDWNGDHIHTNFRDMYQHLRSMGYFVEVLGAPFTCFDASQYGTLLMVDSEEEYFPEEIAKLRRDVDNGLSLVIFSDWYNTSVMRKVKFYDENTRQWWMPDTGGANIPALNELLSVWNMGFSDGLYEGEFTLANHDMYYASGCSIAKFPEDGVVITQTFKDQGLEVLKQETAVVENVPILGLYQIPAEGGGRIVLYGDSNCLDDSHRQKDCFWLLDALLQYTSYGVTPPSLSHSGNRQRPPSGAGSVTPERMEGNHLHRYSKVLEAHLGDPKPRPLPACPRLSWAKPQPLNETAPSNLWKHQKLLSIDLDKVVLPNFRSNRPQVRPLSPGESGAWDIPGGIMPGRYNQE
# T1 sequence (Q14703 17-137 partner limits assumed): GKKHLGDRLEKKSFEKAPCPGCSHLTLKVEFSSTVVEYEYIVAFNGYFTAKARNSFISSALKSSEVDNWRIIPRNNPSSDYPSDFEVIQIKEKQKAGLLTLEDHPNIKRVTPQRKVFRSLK
# B1: soya bean trypsin inhibitor (protein, UniProt P01070 25-205, looked up)
# Trypsin inhibitor A: DFVLDNEGNPLENGGTYYILSDITAFGGIRAAPTGNERCPLTVVQSRNELDKGIGTIISSPYRIRFIAEGHPLSLKFDSFAVIMLCVGIPTEWSVVEDLPEGPAVKIGENKDAMDGWFRLERVSDDEFNNYKLVFCPQQAEDDKCGDIGISIDHDDGTRRLVVSKNKPLVVQFQKLDKESL
# Biological target: T1, BTMD-SKI-1
# Experiment: biochemical
# Assay type: biochemical
# Conditions: not given
row,Molecule,Hydrolysis of SREBP-2 peptide (% of control)
1,"Nc1ccc(CS(=O)(=O)F)cc1 [APMSF, para-aminophenylmethylsulfonyl fluoride]",95 % of control
2,Cc1ccc(S(=O)(=O)NC(CCCCN)C(=O)CCl)cc1 (centres unmarked) [TLCK],100 % of control
3,O=S(=O)([O-])[O-].[Cu+2] [CuSO4],0 % of control
4,[Cl-].[Cl-].[Co+2] [CoCl2],100 % of control
5,[Cl-].[Cl-].[Mg+2] [MgCl2],100 % of control
6,Cc1ccc(S(=O)(=O)N[C@@H](Cc2ccccc2)C(=O)CCl)cc1 [TPCK],71 % of control
7,cystatin,100 % of control
8,CC(C)C[C@H](NC(=O)[C@H]1O[C@@H]1C(=O)O)C(=O)NCCCCN=C(N)N [Peptide E-64],100 % of control
9,O=S(=O)([O-])[O-].[Zn+2] [ZnSO4],0 % of control
10,O=S(=O)([O-])[O-].[Ni+2] [NiSO4],93 % of control
11,O=C(O)CN(CCOCCOCCN(CC(=O)O)CC(=O)O)CC(=O)O [EGTA],15 % of control
12,B1,100 % of control

# Same assay, conditions: read-out: Hydrolysis of SREBP-2 peptide (% of control)
Molecule,remaining activity at 1000 µM,remaining activity at 10000 µM,remaining activity at 100 µM
CC(C)C[C@H](NC(=O)[C@@H](NC(=O)N[C@@H](Cc1ccccc1)C(=O)O)[C@@H]1CCN=C(N)N1)C(=O)N[C@H](C=O)Cc1ccccc1 [Chymostatin],100%,,
"CC(C)[C@H](NC(=O)[C@H](CCCNC(=N)N)NC(=O)N[C@@H](Cc1ccccc1)C(=O)O)C(=O)N[C@H](C=O)CCCNC(=N)N [Antipain, antipain] ({Phe-CO}-Arg-Val-Arg-aldehyde)",100%,,
O[C@H](CS)[C@H](O)CS (racemic) [Dithiothreitol],,92%,
CC(=O)N[C@@H](CC(C)C)C(=O)N[C@@H](CC(C)C)C(=O)N[C@H](C=O)CCCNC(=N)N [Leupeptin],100%,,
"CC(C)CC(=O)N[C@H](C(=O)N[C@H](C(=O)N[C@@H](CC(C)C)[C@@H](O)CC(=O)N[C@@H](C)C(=O)N[C@@H](CC(C)C)[C@@H](O)CC(=O)O)C(C)C)C(C)C [Pepstatin, pepstatin] (Isovaleryl-VV[Sta]A[Sta]-OH)",,,97%
